Data on one substance can be found in US20160058705A1 (priority 2014, published 2016).

Entries after “also recorded” stand apart in the source; their conditions may differ.

Assay [1] relates to TAC-induced cardiac hypertrophy. Briefly: Echocardiography in mouse model of TAC (pressure overload-induced cardiac hypertrophy). The assay is classed as in vivo. To be noted: TAC mice, 300 μg/kg IP at days 1 and 7; compared with TAC controls. From the text: (§1) All procedures involving animal use, housing, and surgeries were approved by the Stanford Institutional Animal Care and Use Committee (IACUC). Animal care and interventions were provided in accordance with the Laboratory Animal Welfare Act.
(§2) For constriction of transverse thoracic aorta (DeAlmeida et al. (2010) J. Vis. Exp. April 21(38) pii:172), mice were anesthetized using an isoflurane inhalational chamber, followed by endotracheal intubation using a 22-gauge angiocatheter (Becton, Dickinson Inc., Sandy, Utah) connected to a small animal ventilator (Harvard Apparatus, Holliston, Mass.). A left thoracotomy was performed via the fourth intercostal space, the transverse aorta was identified, and a 6.0 silk suture was placed between the innominate and left carotid arteries. The suture was tightened around a 271/2 gauge blunt needle, placed parallel to the aorta (FIG. 1B) to induce a constriction of ˜0.4 mm in diameter. In sham control mice, an identical procedure was conducted, except for the constriction of the aorta.
In vivo heart function was evaluated by echocardiography at 1 day prior to surgery (baseline) and on days 1, 7, and 14 post-surgery (FIG. 1A). […] Fractional shortening (FS), LV internal diameter at end diastole (LVIDd) and systole (LVIDs), and posterior LV wall thickness at end diastole (LVPWd) were measured. […]

Assay [2] has the same test system. The assay is described as follows: Histology (Masson's trichrome) of heart sections two weeks post injury. The format is in vivo, mouse. Conditions: TAC mice.
Source text: as §1, §2
Histological analysis was performed following standard protocols for paraffin embedding. Mounted heart samples were stained for Masson's trichrome (TC, to label muscle fibers in red, collagen in blue, cytoplasm in pink, and nuclei in dark brown). A minimum of 4 sections per sample were used.

As to “pyroglutamyl apelin-13 [[Pyr1]-apelin-13]”, in assay [1], the “hypertrophic response / cardiac remodeling and dysfunction due to pressure overload” value is “more modest effect; also recorded: slight inhibition of cardiac remodeling and increase in FS”. The “size of LV and extent of cardiac fibrosis (trichrome histology)” value in assay [2] is recorded as “remarkable inhibition of the LV growth”.
